{
  "source": "patent US20240100053A1",
  "about": "“PHARMACEUTICAL COMPOSITION” (priority 2021, published 2024)",
  "key": {"PK-1 cells [1]": {"system": "PK-1 cells", "test": "Cell proliferation by ATP assay, FGFR4-high PK-1 cells", "type": "cell-based", "settings": "PK-1 cells (high FGFR4); 250 nM, 500 nM, 1 μM or 2 μM; 72 hours; volume-dependent manner; FIG. 3A", "method": "(§1) After 72 hours of incubation, the effect on cell proliferation was examined by ATP assay."}, "PK-45P cells": {"system": "PK-45P cells", "test": "Cell proliferation by ATP assay, FGFR4-low PK-45P cells", "type": "cell-based", "settings": "PK-45P cells (low FGFR4); 250 nM to 2 μM; 72 hours; FIG. 3A", "method": "as §1"}, "[2]": {"system": "PK-1 cells and PK-45P cells", "test": "Cytotoxicity by FACS using annexin V and PI", "type": "cell-based", "settings": "2 μM, FIG. 3B"}, "[3]": {"system": "PK-1 cells and PK-45P cells", "test": "Cell cycle by FACS", "type": "cell-based", "settings": "after addition of BLU9931, FIG. 3C"}, "[4]": {"system": "ERK, AKT, and STAT3 downstream of FGF19/FGFR4 signaling", "test": "Immunoblotting of ERK, AKT, STAT3 in PK-1 cells", "type": "cell-based", "settings": "2 μM, FIG. 4"}, "[5]": {"system": "ERK, AKT, and STAT3 downstream of FGF19/FGFR4 signaling", "test": "Immunoblotting of ERK, AKT, STAT3 in PK-45P cells", "type": "cell-based", "settings": "FIG. 4"}, "PK-1 cells [6]": {"system": "PK-1 cells", "test": "Cell invasion, Corning Matrigel Invasion Chamber", "type": "cell-based", "settings": "2 μM, 16 hours, FIG. 5", "method": "1×10^5 cells/500 μL of PK-1 cells were seeded on top of the insert."}, "PK-1 cells [7]": {"system": "PK-1 cells", "test": "Cellular aging: morphology and SA-β-Gal staining", "type": "cell-based", "settings": "2 μM", "method": "In this example, an aging of cells by BLU9931 was examined. […] This morphological change was considered to be due to cellular aging. The present inventors measured the activity of senescence-associated β-galactosidase (SA-β-Gal), a marker of cellular aging.\nAfter staining, nuclear staining was performed with DAPI."}, "phosphorylation of H2A.X": {"system": "phosphorylation of H2A.X", "test": "DNA damage by phosphorylation of H2A.X (immunofluorescence)", "type": "cell-based", "settings": "incubation time increased from 3 days to 7 days; FIG. 7", "method": "BLU9931-treated cells were incubated with anti-γHA2.X mouse monoclonal antibody at 4° C. overnight. Cells were treated with Alexa-Fluor-conjugated secondary antibodies and nuclear staining was performed with DAPI."}, "FGFR1-3": {"system": "FGFR1-3", "settings": "general statement in the description, no test shown; cited from earlier work"}},
  "data": [
    {"smiles": "C=CC(=O)Nc1cccc(C)c1Nc1ncc2cc(-c3c(Cl)c(OC)cc(OC)c3Cl)ccc2n1", "note": "[BLU9931]", "values": [
      {"measurement": "cell proliferation", "setting": "PK-1 cells [1]", "result": "suppressed"},
      {"measurement": "cell proliferation", "setting": "PK-45P cells", "result": "no effect"},
      {"measurement": "apoptosis, necrosis, or cell damage observed in cells", "setting": "[2]", "result": "≤ 2", "unit": "%"},
      {"measurement": "cytotoxicity", "setting": "[2]", "result": "no significant effects"},
      {"measurement": "number of cells in S phase", "setting": "[3]; 20.7% without", "result": 13.5, "unit": "%"},
      {"measurement": "number of cells in G0/G1 phase", "setting": "[3]; 60.7% without", "result": 70.1, "unit": "%"},
      {"measurement": "expression of AKT", "setting": "[4]", "result": "decreased"},
      {"measurement": "expression of ERK", "setting": "[4]", "result": "decreased"},
      {"measurement": "expression of STAT3", "setting": "[4]", "result": "decreased"},
      {"measurement": "expression of AKT", "setting": "[5]", "result": "not decreased"},
      {"measurement": "expression of ERK", "setting": "[5]", "result": "not decreased"},
      {"measurement": "expression of STAT3", "setting": "[5]", "result": "not decreased"},
      {"measurement": "cell invasion", "setting": "PK-1 cells [6]", "result": "inhibited"},
      {"measurement": "number of SA-β-Gal positive cells compared to the control cells", "setting": "PK-1 cells [7]; FIG. 6", "result": "increased"},
      {"measurement": "cell morphology compared to the control cells", "setting": "PK-1 cells [7]; PK-1 cells, 1 week, FIG. 6A", "result": "larger and flattened"},
      {"measurement": "DNA damage of the cells", "setting": "phosphorylation of H2A.X", "result": "progressed"},
      {"measurement": "inhibition of FGFR1-3", "setting": "FGFR1-3", "result": "does not inhibit"}
    ]}
  ]
}
